From patent publication US6517812B1, “Inhibition of psychostimulant-induced and nicotine-induced craving” (The General Hospital Corporation, priority 1997, dated 2003)

Key:
[1] = biological target: T1, D1 receptor (Rattus norvegicus, UniProt P18901); assay: SCH-23390 pretreatment before cocaine, CBV-weighted fMRI in rat; format: in vivo; conditions: post 0.5 mg/kg cocaine
T1 construct: Male Harlan Sprague-Dawley rats (225-300 gm) were anesthetized briefly; from tissue; host or cells: brain of living male Sprague-Dawley rats (in vivo)

[2] = biological target: T1, D1 receptor; assay: SCH-23390 pretreatment before cocaine, LDF of frontal cortex CBF in rat; format: in vivo; conditions: 0.5 mg/kg cocaine after SCH-23390 pretreatment, n=3, p<0.04
Procedure: All procedures were carried out in accordance with NIH guidelines. Male Harlan Sprague-Dawley rats (225-300 gm) were anesthetized briefly with 1.5% halothane in oxygen for insertion of left femoral arterial and venous cannulae and placement of tracheostomy for mechanical ventilation (using a 16 gauge intravenous catheter, Inste-W, Becton Dickinson, Sandy, Utah). All wounds were infiltrated with 1% lidocaine before incision. Following surgery, the inspired halothane concentration was reduced to 0.7% and rats were paralyzed with 2 mg/kg intravenous pancuronium, followed by a continuous intravenous infusion of pancuronium at 2 mg/kg/hr. Pancuronium was dissolved in normal saline administered at 5 ml/kg/hr. […] Arterial blood samples (150 μl) withdrawn from cannula were analyzed for arterial partial pressures of oxygen, carbon dioxide, and pH (Ciba-Coming Model 1304) before administration of drugs, and at the end of each experiment before sacrifice, to ensure animal stability. Arterial blood pressure and rectal temperature were monitored throughout the experiment. […]
(§1) Regional cortical blood flow was determined by LDF (Perimed, PF2B, Stockholm, Sweden) as described previously (Ayata, et al., 1996, J. Cereb. Blood Flow Metab., 16:539-541). […] All data were collected, stored, and analyzed using MacLab/8 data acquisition and analysis system (ADInstruments, Mountain View, Calif.). […]

[3] = tested on: rat frontal cortex; assay: Laser Doppler-flowmetry (LDF) of regional cortical blood flow (CBF) in rat; format: in vivo; conditions: rat, bolus infusion 1, 5, 10 and 20 mg/kg (data not shown)
Procedure: (§2) All procedures were carried out in accordance with NIH guidelines. Male Harlan Sprague-Dawley rats (225-300 gm) were anesthetized briefly with 1.5% halothane in oxygen for insertion of left femoral arterial and venous cannulae and placement of tracheostomy for mechanical ventilation (using a 16 gauge intravenous catheter, Inste-W, Becton Dickinson, Sandy, Utah). All wounds were infiltrated with 1% lidocaine before incision. Following surgery, the inspired halothane concentration was reduced to 0.7% and rats were paralyzed with 2 mg/kg intravenous pancuronium, followed by a continuous intravenous infusion of pancuronium at 2 mg/kg/hr. Pancuronium was dissolved in normal saline administered at 5 ml/kg/hr. Rats were mechanically ventilated (in a small animal volume controlled ventilator, Harvard Apparatus, Inc., South Natick, Mass.) with a 80/20 air/oxygen mixture, an inspiratory to expiratory ratio of 1:1, and an initial tidal volume of 3.0 ml at a rate of 40 breaths per minute. Ventilation parameters were adjusted to maintain normal arterial blood gases (pH=7.40±0.01, PaCO2=40±2, PaO2=145±10). Arterial blood samples (150 μl) withdrawn from cannula were analyzed for arterial partial pressures of oxygen, carbon dioxide, and pH (Ciba-Coming Model 1304) before administration of drugs, and at the end of each experiment before sacrifice, to ensure animal stability. Arterial blood pressure and rectal temperature were monitored throughout the experiment. […] Rats torsos were wrapped in two heating blankets (Gaymar, Orchid Park, N.Y.) circulating warm water to maintain core temperature at 37-38° C. To minimize MRI motion artifact, rats were placed into a custom plastic cradle attached to a head frame machined from delrin plastic (David Kopf Instruments, Fremont, Calif.); heads were fixed with plastic screws inserted into the ear canals and a bar inserted under the front incisors. Rat heads were shaved and covered with gel toothpaste to reduce magnetic susceptibility artifacts arising from air-tissue interfaces; ear canals and oropharynx were also filled with toothpaste. A surface coil was secured over the dorsal surface of the head before positioning the animal in the magnet center. Cocaine (RBI, Natick, Mass.), SCH-23390 (RBI, Natick, Mass.), and cocaine methiodide (NIDA, Bethesda, Md.) were dissolved in normal saline and administered in a 0.5 ml volume at a rate of 1 ml/min via the femoral vein. Sixty minutes passed before injections of cocaine were repeated.
Regional cortical blood flow was determined by LDF (Perimed, PF2B, Stockholm, Sweden) as described previously (Ayata, et al., 1996, J. Cereb. Blood Flow Metab., 16:539-541). Rats (n=8) were prepared exactly as for dynamic MR studies and positioned in a standard stereotaxic head frame. With the scalp incised and retracted, two holes (1-2 mm in diameter) were drilled through the skull 2 mm lateral to midline; one hole was 2 mm anterior to bregma overlying frontal cortex, and the other was 8 mm posterior to bregma to examine occipital cortex. The flow probe was positioned directly upon exposed dura mater in a puddle of mineral oil. […] All data were collected, stored, and analyzed using MacLab/8 data acquisition and analysis system (ADInstruments, Mountain View, Calif.). Arterial pressure was continuously monitored and the data stored; heart rate was calculated from arterial pressure pulses by the data acquisition software. […]

[4] = tested on: Male Harlan Sprague-Dawley rats; assay: Arterial blood pressure and heart rate monitoring in rat; conditions: bolus infusion 1, 5, 10 and 20 mg/kg
Procedure: as §2, with “To minimize MRI motion artifact, rats were placed into a custom plastic cradle attached to a head frame machined from delrin plastic (David Kopf Instruments, Fremont, Calif.); heads were fixed with plastic screws inserted into the ear canals and a bar inserted under the front incisors. Rat heads were shaved and covered with gel toothpaste to reduce magnetic susceptibility artifacts arising from air-tissue interfaces; ear canals and oropharynx were also filled with toothpaste. A surface coil was secured over the dorsal surface of the head before positioning the animal in the magnet center. Cocaine (RBI, Natick, Mass.), SCH-23390 (RBI, Natick, Mass.), and cocaine methiodide (NIDA, Bethesda, Md.) were dissolved in normal saline and administered in a 0.5 ml volume at a rate of 1 ml/min via the femoral vein. Sixty minutes passed before injections of cocaine were repeated.” left out
as §1, with “Calif.). Arterial pressure was continuously monitored and the data stored; heart rate was calculated from arterial pressure pulses by the data acquisition software.” for “Calif.).”

[5] = literature (Schindler 1992, Hemby 1994); cited from earlier work

T1 sequence (P18901 whole entry): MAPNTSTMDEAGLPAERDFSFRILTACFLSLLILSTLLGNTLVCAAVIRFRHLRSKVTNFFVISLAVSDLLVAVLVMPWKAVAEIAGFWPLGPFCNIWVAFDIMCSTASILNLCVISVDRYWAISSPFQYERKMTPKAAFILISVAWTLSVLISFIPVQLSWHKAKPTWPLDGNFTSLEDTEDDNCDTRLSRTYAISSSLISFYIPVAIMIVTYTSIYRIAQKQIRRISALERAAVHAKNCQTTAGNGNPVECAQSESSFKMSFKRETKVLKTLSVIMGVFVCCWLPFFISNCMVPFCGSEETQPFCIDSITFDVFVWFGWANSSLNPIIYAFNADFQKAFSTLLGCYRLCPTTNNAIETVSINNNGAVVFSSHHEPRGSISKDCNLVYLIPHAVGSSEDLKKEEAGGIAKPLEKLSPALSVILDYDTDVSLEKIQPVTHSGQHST

Compound	drop in CBV at nadir, frontal neocortex [1] [%]	drop in CBV at nadir, striatum [1] [%]	change in CBF relative to pre-drug baseline [2] [%]	change in frontal cortex CBF [3]	blood pressure and heart rate [4]	blood brain barrier passage [5]
CN1CCc2cc(Cl)c(O)cc2[C@@H](c2ccccc2)C1 [SCH-23390]	5	8	−18±3	–	–	–
COC(=O)[C@H]1[C@@H](OC(=O)c2ccccc2)C[C@@H]2CC[C@H]1[N+]2(C)C.[I-] [cocaine methiodide]	–	–	–	did not produce any significant change	transient decrease	does not cross the blood brain barrier
